From ChEMBL document CHEMBL2016572, “Second-generation histone deacetylase 6 inhibitors enhance the immunosuppressive effects of Foxp3+ T-regulatory cells” (J Med Chem, 2012)
Calls of active or inactive are those of the source. The rule behind the calls is not given here.

Experiments:
Homo sapiens = organism: Homo sapiens; assay: Selectivity ratio of IC50 for human recombinant HDAC1 to IC50 for human recombinant HDAC6
Histone deacetylase 1 = Histone deacetylase 1 (Homo sapiens, UniProt Q13547); assay: Inhibition of human recombinant HDAC1 using RHKKAc peptide as substrate incubated for 5 to mins prior to substrate addition measured after 2 hrs
[1] = biological target: T1, Protein deacetylase HDAC6 (Homo sapiens, UniProt Q9UBN7); assay: Inhibition of human recombinant HDAC6 using RHKKAc peptide as substrate incubated for 5 to mins prior to substrate addition measured after 2 hrs
T1 sequence (Q9UBN7 whole entry): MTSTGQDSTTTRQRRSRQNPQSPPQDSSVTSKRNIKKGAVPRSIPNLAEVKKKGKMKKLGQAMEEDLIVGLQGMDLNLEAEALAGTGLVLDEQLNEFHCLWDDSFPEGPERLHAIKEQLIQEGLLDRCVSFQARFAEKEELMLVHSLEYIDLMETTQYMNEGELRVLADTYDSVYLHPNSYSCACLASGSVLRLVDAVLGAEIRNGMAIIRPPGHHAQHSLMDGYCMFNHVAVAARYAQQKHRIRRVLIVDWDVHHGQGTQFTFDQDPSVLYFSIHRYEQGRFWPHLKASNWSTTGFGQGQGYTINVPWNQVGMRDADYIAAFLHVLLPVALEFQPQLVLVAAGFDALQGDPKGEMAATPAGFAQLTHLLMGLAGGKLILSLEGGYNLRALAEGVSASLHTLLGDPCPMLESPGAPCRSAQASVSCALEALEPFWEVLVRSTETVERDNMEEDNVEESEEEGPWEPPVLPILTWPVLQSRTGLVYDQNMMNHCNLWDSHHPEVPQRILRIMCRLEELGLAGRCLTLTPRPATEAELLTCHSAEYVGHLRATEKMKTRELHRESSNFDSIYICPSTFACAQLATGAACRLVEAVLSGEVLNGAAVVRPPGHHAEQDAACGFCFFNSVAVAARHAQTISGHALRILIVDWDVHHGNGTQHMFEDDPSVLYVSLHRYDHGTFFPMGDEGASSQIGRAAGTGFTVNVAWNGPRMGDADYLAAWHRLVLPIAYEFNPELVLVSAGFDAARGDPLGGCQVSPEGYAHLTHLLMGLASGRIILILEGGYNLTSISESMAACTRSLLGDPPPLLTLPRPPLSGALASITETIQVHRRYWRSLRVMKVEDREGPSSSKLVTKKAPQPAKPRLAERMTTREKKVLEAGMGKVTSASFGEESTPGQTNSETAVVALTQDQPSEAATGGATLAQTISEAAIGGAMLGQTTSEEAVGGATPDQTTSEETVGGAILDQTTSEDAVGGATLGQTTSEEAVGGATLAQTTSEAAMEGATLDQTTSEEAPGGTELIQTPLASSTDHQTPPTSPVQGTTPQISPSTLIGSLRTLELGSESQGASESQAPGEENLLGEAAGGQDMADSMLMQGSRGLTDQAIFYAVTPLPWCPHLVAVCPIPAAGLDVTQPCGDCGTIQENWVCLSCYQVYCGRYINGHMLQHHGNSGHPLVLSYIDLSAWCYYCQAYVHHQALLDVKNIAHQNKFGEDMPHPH

[2] = Immunosuppressive activity against C57BL/6 mouse CFSE-labelled effector T cells assessed as Treg suppression of Teffector proliferation AUC at 0.5 uM after 3 to 4 days by flow cytometry relative to control; type: functional, T-cell
[3] = Immunosuppressive activity against C57BL/6 mouse CFSE-labelled effector T cells assessed as Treg suppression of Teffector proliferation AUC at […] after 3 to 4 days by flow cytometry relative to control; type: functional, T-cell
Mus musculus = assay: Immunosuppressive activity against HDAC6 deficient CD4+CD25- CFSE-labelled effector T cells xenografted in RAG-/- mouse assessed as inhibition of FoxP3+,CD4+CD25+ T regulatory cells-mediated proliferation at 1 mg/kg, ip administered qd for 7 days measured on day 8 by flow cytometry; type: functional, organism-based; parameters: dose 1 mg/kg; conditions: T-cell
T-cell [4] = assay: Immunosuppressive activity against C57BL/6 mouse CFSE-labelled effector T cells assessed as inhibition of T regulatory cells-mediated proliferation at 0.25 uM after 3 to 4 days by flow cytometry relative to control; type: functional, cell-based
[5] = Immunosuppressive activity against C57BL/6 mouse CFSE-labelled effector T cells assessed as Treg suppression of Teffector proliferation AUC at 0.25 uM after 3 to 4 days by flow cytometry relative to control; type: functional, T-cell
[6] = Immunosuppressive activity against C57BL/6 mouse CFSE-labelled effector T cells assessed as inhibition of T regulatory cells-mediated proliferation at Treg:Teff ratio of 1:2 at 1 uM after 3 to 4 days by flow cytometry (reference value: 64.8%); type: functional; conditions: C57BL/6, T-cell
[7] = Immunosuppressive activity against C57BL/6 mouse CFSE-labelled effector T cells assessed as inhibition of T regulatory cells-mediated proliferation at Treg:Teff ratio of 1:1 at 1 uM after 3 to 4 days by flow cytometry (reference value: 42.2%); type: functional; conditions: C57BL/6, T-cell
[8] = Immunosuppressive activity against C57BL/6 mouse CFSE-labelled effector T cells assessed as inhibition of T regulatory cells-mediated proliferation at Treg:Teff ratio of 1:16 at 1 uM after 3 to 4 days by flow cytometry (reference value: 86.9%); type: functional; conditions: C57BL/6, T-cell
[9] = Immunosuppressive activity against C57BL/6 mouse CFSE-labelled effector T cells assessed as inhibition of T regulatory cell-mediated proliferation at Treg:Teff ratio of 1:4 at 1 uM after 3 to 4 days by flow cytometry (reference value: 74.2%); type: functional; conditions: C57BL/6, T-cell
T-cell [10] = assay: Immunosuppressive activity against C57BL/6 mouse CFSE-labelled effector T cells assessed as inhibition of T regulatory cells-mediated proliferation at 1 uM after 3 to 4 days by flow cytometry relative to control; type: functional, cell-based
[11] = Immunosuppressive activity against C57BL/6 mouse CFSE-labelled effector T cells assessed as Treg suppression of Teffector proliferation AUC at 1 uM after 3 to 4 days by flow cytometry relative to control; type: functional, T-cell
[12] = Immunosuppressive activity against C57BL/6 mouse CFSE-labelled effector T cells assessed as inhibition of T regulatory cell-mediated proliferation at Treg:Teff ratio of 1:16 at 0.5 uM after 3 to 4 days by flow cytometry (reference value: 86.9%); type: functional; conditions: C57BL/6, T-cell
T-cell [13] = assay: Immunosuppressive activity against C57BL/6 mouse CFSE-labelled effector T cells assessed as inhibition of T regulatory cell-mediated cell division at Treg:Teff ratio of 1:2 at 0.5 uM after 3 to 4 days by flow cytometry (reference value: 64.8%); type: functional; conditions: C57BL/6, T-cell
[14] = Immunosuppressive activity against C57BL/6 mouse CFSE-labelled effector T cells assessed as inhibition of T regulatory cell-mediated proliferation at Treg:Teff ratio of 1:4 at 0.5 uM after 3 to 4 days by flow cytometry (reference value: 74.2%); type: functional; conditions: C57BL/6, T-cell
T-cell [15] = assay: Immunosuppressive activity against C57BL/6 mouse CFSE-labelled effector T cells assessed as inhibition of T regulatory cell-mediated cell division at Treg:Teff ratio of 1:1 at 0.5 uM after 3 to 4 days by flow cytometry (reference value: 42.2%); type: functional; conditions: C57BL/6, T-cell
[16] = Immunosuppressive activity against C57BL/6 mouse CFSE-labelled effector T cells assessed as inhibition of T regulatory cell-mediated proliferation at Treg:Teff ratio of 1:8 at 0.5 uM after 3 to 4 days by flow cytometry (reference value: […]); type: functional; conditions: C57BL/6, T-cell

Histone deacetylase 1, sequence (Q13547 whole entry): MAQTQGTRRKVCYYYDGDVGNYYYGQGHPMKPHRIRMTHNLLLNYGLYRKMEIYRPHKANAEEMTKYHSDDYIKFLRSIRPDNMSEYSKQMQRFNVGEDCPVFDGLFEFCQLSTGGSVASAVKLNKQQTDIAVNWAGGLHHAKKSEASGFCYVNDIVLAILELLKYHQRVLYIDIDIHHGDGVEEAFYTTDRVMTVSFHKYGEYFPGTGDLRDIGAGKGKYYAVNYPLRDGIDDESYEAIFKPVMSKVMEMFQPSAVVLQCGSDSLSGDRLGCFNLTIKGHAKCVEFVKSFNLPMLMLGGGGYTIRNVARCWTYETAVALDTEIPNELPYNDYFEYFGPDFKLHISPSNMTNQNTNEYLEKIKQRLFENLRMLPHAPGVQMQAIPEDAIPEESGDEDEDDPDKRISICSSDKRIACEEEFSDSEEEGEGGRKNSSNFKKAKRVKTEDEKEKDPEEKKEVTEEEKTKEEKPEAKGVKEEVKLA

Row | SMILES | Ratio IC50 (Homo sapiens) | IC50 (Histone deacetylase 1) | IC50 [1] | other results
1 | COc1ccc(CN2CCc3c(c4ccccc4n3Cc3ccc(C(=O)NO)cc3)C2)cc1 | 1520 | 4640 nM | 3.05 nM | 
2 | Cc1cccc2c3c(n(Cc4ccc(C(=O)NO)cc4)c12)CCN(C)C3 | 636 | 22100 nM | 34.7 nM | 
3 | COc1cccc(CN2CCc3c(c4ccccc4n3Cc3ccc(C(=O)NO)cc3)C2)c1 | 1750 | 5190 nM | 2.96 nM | Ratio [2]: 1.9
4 | CN1CCc2c(c3cc(Br)ccc3n2Cc2ccc(C(=O)NO)cc2)C1 | 606 | 427 nM | 0.704 nM | inhibition (Mus musculus): Active; inhibition (T-cell [4]): Active; Ratio [5]: 1.87
5 | CN1CCc2c(c3cc(Cl)ccc3n2Cc2ccc(C(=O)NO)cc2)C1 | 1000 | 1020 nM | 1.02 nM | 
6 | O=C(NO)c1ccc(Cn2c3c(c4ccccc42)CCN(Cc2ccccc2)C3)cc1 | 4950 | 4320 nM | 0.872 nM | 
7 | CN1CCc2c(c3ccccc3n2Cc2ccc(C(=O)NO)cc2)C1 [TUBASTATIN A] |  |  |  | inhibition at 1 µM [6]: 44.4%; inhibition at 1 µM [7]: 37.8%; inhibition at 1 µM [8]: 75.4%; inhibition at 1 µM [9]: 58.7%
8 | CN1CCc2c(n(Cc3ccc(C(=O)NO)cc3)c3ccccc23)C1 | 3700 |  | 1.4 nM | inhibition (T-cell [10]): Active; Ratio [11]: 1.63
9 | COc1ccc2c(c1)c1c(n2Cc2ccc(C(=O)NO)cc2)CCN(C)C1 | 614 | 1880 nM | 3.06 nM | 
10 | O=C(NO)c1ccc(Cn2c3c(c4ccccc42)CN(Cc2ccccc2)CC3)cc1 | 7150 | 10300 nM | 1.44 nM | 
11 | Cc1cc(C)c2c3c(n(Cc4ccc(C(=O)NO)cc4)c2c1)CCN(C)C3 | 268 | 10300 nM | 38.4 nM | 
12 | O=C(NO)c1ccc(Cn2c3c(c4ccccc42)CN(Cc2ccncc2)CC3)cc1 | 4710 | 2740 nM | 0.582 nM | inhibition at 0.5 µM [12]: 72.8%; inhibition (Mus musculus): Active; inhibition at 0.5 µM (T-cell [13]): 51.6%; inhibition at 0.5 µM [14]: 62.3%; Ratio [2]: 2.13; inhibition at 0.5 µM (T-cell [15]): 37.8%; inhibition at 0.5 µM [16]: 69.7%

More lines, main results first:

Row | Ratio IC50 (Homo sapiens) | IC50 (Histone deacetylase 1) | IC50 [1] | SMILES | other results
13 | 1830 | 7450 nM | 4.06 nM | NC(=O)CCCN1CCc2c(c3ccccc3n2Cc2ccc(C(=O)NO)cc2)C1 | 
14 | 5990 | 5820 nM | 0.972 nM | C=CCN1CCc2c(c3ccccc3n2Cc2ccc(C(=O)NO)cc2)C1 | Ratio [2]: 1.65
15 | 626 | 14100 nM | 22.5 nM | CN1CCc2c(c3cc(C(C)(C)C)ccc3n2Cc2ccc(C(=O)NO)cc2)C1 | 
16 | 3830 | 8620 nM | 2.25 nM | CC(C)(C)OC(=O)N1CCc2c(c3ccccc3n2Cc2ccc(C(=O)NO)cc2)C1 | 
17 | 4980 | 3980 nM | 0.799 nM | NC(=O)CN1CCc2c(c3ccccc3n2Cc2ccc(C(=O)NO)cc2)C1 | Ratio [3]: 1.69
18 | 422 | 2070 nM | 4.9 nM | Cc1ccc2c(c1)c1c(n2Cc2ccc(C(=O)NO)cc2)CCN(C)C1 | 
19 | 2500 | 16400 nM | 6.56 nM | O=C(NO)c1ccc(Cn2c3c(c4ccccc42)CNCC3)cc1 | Ratio [3]: 1.76
20 | 3510 | 1610 nM | 0.459 nM | NC(=O)CCN1CCc2c(c3ccccc3n2Cc2ccc(C(=O)NO)cc2)C1 | 
21 | 1750 | 15700 nM | 8.96 nM | CC(C)N1CCc2c(c3ccccc3n2Cc2ccc(C(=O)NO)cc2)C1 | 
22 | 352 | 4050 nM | 11.5 nM | Cc1ccc2c3c(n(Cc4ccc(C(=O)NO)cc4)c2c1)CCN(C)C3 | 
23 | 3410 | 10200 nM | 2.99 nM | CCN1CCc2c(c3ccccc3n2Cc2ccc(C(=O)NO)cc2)C1 | 
24 | 3900 | 9700 nM | 2.49 nM | O=C(NO)c1ccc(Cn2c3c(c4ccccc42)CCNC3)cc1 | 
